Data on five compounds can be found in US9622481B2, “Biofilm-removing antimicrobial compositions and uses thereof” (Kane Biotech Inc., priority 2009, dated 2017).

Broadly, the MIC is the lowest concentration found to suppress growth.

Holding throughout (assay type): cell-based
In data set [1] the test system is Pseudomonas aeruginosa biofilm. The experiment in a line: Biofilm formation, crystal violet staining, 96-well microplate (Example 8). The following applies: reduction in biofilm formation, OD at 630 nm, 24 hours. On the procedure:
(§1) An overnight broth culture of bacteria and yeast were grown in TSB and used as inoculum. 96-well microplates containing TSB (for gram-positive species and yeast) and colony forming unit antigen medium (for gram-negative bacteria) in the absence and the presence of each compound separately (SMP or CHX) and together (SMP+CHX) were inoculated. The biofilm was grown by incubating at 37° C. (for gram-positive bacteria and yeast) and 26° C. (for gram-negative bacteria) for 24 hours. Growth of planktonic cells based on absorbance at 600 nm using Labsystems Multiskan Ascent microplate reader was determined. Biofilm was measured by discarding the media in the wells, rinsing the well three times with water, and staining the bound cells with crystal violet. The dye was then solubilized with 33% acetic acid, and absorbance at 630 nm was determined using a microtiter plate reader.

Data set [2] has as its system Staphylococcus epidermidis biofilm. Put plainly: Biofilm formation, crystal violet staining, 96-well microtiter plate (Example 9). The following applies: reduction in biofilm formation, OD at 630 nm, 37° C., 24 hours. The method, then: as §1, with “S. epidermidis was” for “bacteria and yeast were”, “microtiter plate” for “microplates”, “TSB” for “TSB (for gram-positive species and yeast) and colony forming unit antigen medium (for gram-negative bacteria)”, “and” for “and the”, “C.” for “C. (for gram-positive bacteria and yeast) and 26° C. (for gram-negative bacteria)”

Data set [3] concerns Escherichia coli biofilm. Put plainly: Biofilm formation, crystal violet staining, 96-well microtiter plate (Example 7). The following applies: reduction in biofilm formation, OD at 630 nm, 37° C., 24 hours. The method, then: as §1, with “E. coli was” for “bacteria and yeast were”, “microtiter plate” for “microplates”, “TSB” for “TSB (for gram-positive species and yeast) and colony forming unit antigen medium (for gram-negative bacteria)”, “and” for “and the”, “C.” for “C. (for gram-positive bacteria and yeast) and 26° C. (for gram-negative bacteria)”

For data set [4], the system named is Escherichia coli biofilm. The experiment in a line: Biofilm formation, crystal violet staining, 96-well microtiter plate (Example 4). The following applies: reduction in biofilm formation, OD at 630 nm, 37° C., 24 hours. The method, then: (§2) An overnight broth culture of E. coli was grown in TSB and used as inoculum. 96-well microtiter plate containing TSB in the absence and presence of each compound separately (SMP or FU) and together (SMP+FU) were inoculated. The biofilm was grown by incubating at 37° C. for 24 hours. Growth of planktonic cells based on absorbance at 600 nm using Labsystems Multiskan Ascent microplate reader was determined. Biofilm was measured by discarding the media in the wells, rinsing the well three times with water, and staining the bound cells with crystal violet. The dye was then solubilized with 33% acetic acid, and absorbance at 630 nm was determined using a microtiter plate reader.

Data set [5] relates to Staphylococcus epidermidis biofilm. The experiment in a line: Biofilm formation, crystal violet staining, 96-well microtiter plate (Example 6). The following applies: reduction in biofilm formation, OD at 630 nm, 37° C., 24 hours. The method, then:
as §2, with “S. epidermidis” for “E. coli”

Data set [6] deals with Pseudomonas aeruginosa biofilm. Put plainly: Biofilm formation, crystal violet staining, 96-well microtiter plate (Example 5). The following applies: reduction in biofilm formation, OD at 630 nm, 37° C., 24 hours. The method, then: as §2, with “P. aeruginosa” for “E. coli”
The test system of data set [7] is Staphylococcus epidermidis biofilm. Put plainly: Biofilm formation, crystal violet staining, 96-well microplate (Example 3). The following applies: reduction in biofilm formation, OD at 630 nm, 37° C., 24 hours. On the procedure: (§3) An overnight broth culture of S. epidermidis was grown in TSB, and used as inoculum. 96-well microplates containing TSB (for gram-positive species) in the absence and the presence of each compound (PS or BZK) separately and together (PS and BZK) were inoculated and incubated at 37° C. for 24 hours. Growth of planktonic cells based on absorbance at 600 nm using Labsystems Multiskan Ascent microplate reader was determined. Biofilm was measured by discarding the media in the wells, rinsing the well three times with water, and staining the bound cells with crystal violet. The dye was then solubilized with 33% acetic acid, and absorbance at 630 nm was determined using a microtiter plate reader.

Data set [8] relates to Pseudomonas aeruginosa biofilm. The experiment in a line: Biofilm formation, crystal violet staining, 96-well microplate (Example 2). The following applies: reduction in biofilm formation, OD at 630 nm, 26°, 24 hours. On the procedure:
as §3, with “P. aeruginosa” for “S. epidermidis”, “TSB” for “TSB,”, “colony forming antigen medium” for “TSB”, “26°” for “37° C.”

In data set [9] the test system is Escherichia coli biofilm. Put plainly: Biofilm formation, crystal violet staining, 96-well microplate (Example 1). The following applies: reduction in biofilm formation, OD at 630 nm, 26° C., 24 hours. On the procedure: as §3, with “E. coli” for “S. epidermidis”, “TSB” for “TSB,”, “colony forming antigen medium” for “TSB”, “26°” for “37°”
Another data set has as its system S. aureus. The experiment in a line: Minimum inhibitory concentration (MIC) in 96-well microtiter plates. The following applies: agent alone, TSB, 37° C., 24 hours. The method, then: (§4) Bacterial strains were grown overnight at 37° C. with 100 rpm shaking in Tryptic Soy Broth (TSB) and diluted to approximately 10^5 CFU/ml. Assays were conducted by methods of minimum inhibitory concentration (MIC) in 96-well microtiter plates as described previously (Amsterdam, D. 1996, In: V. Loman, Ed., “Antibiotics in laboratory medicine”, p. 52-111, Williams and Wilkins, Baltimore, M.D.). Antimicrobials PS and SNP both alone and together were serially diluted in TSB (100 μl), and 100 μl of bacterial suspension was added to each well. Plates were incubated at 37° C. for 24 hours and read at 600 nm using a microtiter plate reader (Multiskan Ascent, Labsystems, Helsinki, Finland).

The test system of a further data set is Escherichia coli. Described as above. The following applies: agent alone, TSB, 37° C., 24 hours. On the procedure:
as §4

Regarding `[H]/N=C(\N/C(=N/[H])NCCCCCCNC(=N)NC(=N)Nc1ccc(Cl)cc1)Nc1ccc(Cl)cc1` [CHX, chlorhexidine], the figures for the “Biofilm Inhibition by CHX” value (in [1] (CHX 6 μg/ml alone); in data set [2] (CHX 0.5 μg/ml alone); in the data set with Escherichia coli biofilm [3] (CHX 1 μg/ml alone)) were 0.66 OD, 0.00 OD and 0.04 OD, respectively.
Regarding `O=c1[nH]cc(F)c(=O)[nH]1` [FU, 5-fluorouracil], the “Biofilm Inhibition by FU” value worked out at 0.17 OD with Escherichia coli biofilm [4] (FU 6.25 μg/ml alone), 1.43 OD in data set [5] (FU 20 μg/ml alone) and 0.00 OD in data set [6] (FU 3.75 μg/ml alone).
As for `[Na+].[O-][I+3]([O-])([O-])[O-]` [SMP, sodium metaperiodate], the “Biofilm Inhibition by SMP” value in the data set with Escherichia coli biofilm [4] (SMP 250 μg/ml alone) was determined as 0.3 OD; in [5] (SMP 250 μg/ml alone) it was 0.00 OD; in data set [1] (SMP 125 μg/ml alone), 0.17 OD; in data set [6] (SMP 250 μg/ml alone), 0.16 OD; in data set [2] (SMP 250 μg/ml alone), 0.00 OD; in the data set with Escherichia coli biofilm [3] (SMP 250 μg/ml alone), 0.12 OD.
Turning to benzalkonium chloride [BZK], the “Biofilm Inhibition by BZK” value in data set [7] (BZK 0.8 μg/ml alone) came out at 1.21 OD; in data set [8] (BZK 12.5 μg/ml alone), 0.00 OD; in the data set with Escherichia coli biofilm [9] (BZK 6 μg/ml alone), 0.14 OD.
With protamine sulfate [PS], the “Biofilm Inhibition by PS” value in [7] (PS 1.5 μg/ml alone) was 0.34 OD; in [8] (PS 25 μg/ml alone) it was 0.00 OD; with Escherichia coli biofilm [9] (PS 12 μg/ml alone) it was 0.04 OD. Besides, the MIC in the data set with S. aureus and against Escherichia coli was above 200 µg/mL throughout.
